Read-outs that look alike come from different tables or passages of the source.
Assays:
human TRPA1 = target: T1, human TRPA1 (Homo sapiens, UniProt O75762, K186N/R3C/R58T); test: Intracellular calcium (Fluo-4, FLIPR) activation of TRPA1 cells by GRAS compounds; type: cell-based; details: for activation at 1000 µM / activation at 100 µM: read-out: A1 activation, % of agonist value;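 on all read-outs here: TRPA1-expressing cells, fluorescence read on a FLIPR Tetra (ex 488 nm, em 514 nm) every 2 s for 10 min after compound addition, baseline subtracted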
T1 construct: expressed in transfected cells; pcDNA3 control cells
T1 sequence (O75762 whole entry R3C/R58T/K186N): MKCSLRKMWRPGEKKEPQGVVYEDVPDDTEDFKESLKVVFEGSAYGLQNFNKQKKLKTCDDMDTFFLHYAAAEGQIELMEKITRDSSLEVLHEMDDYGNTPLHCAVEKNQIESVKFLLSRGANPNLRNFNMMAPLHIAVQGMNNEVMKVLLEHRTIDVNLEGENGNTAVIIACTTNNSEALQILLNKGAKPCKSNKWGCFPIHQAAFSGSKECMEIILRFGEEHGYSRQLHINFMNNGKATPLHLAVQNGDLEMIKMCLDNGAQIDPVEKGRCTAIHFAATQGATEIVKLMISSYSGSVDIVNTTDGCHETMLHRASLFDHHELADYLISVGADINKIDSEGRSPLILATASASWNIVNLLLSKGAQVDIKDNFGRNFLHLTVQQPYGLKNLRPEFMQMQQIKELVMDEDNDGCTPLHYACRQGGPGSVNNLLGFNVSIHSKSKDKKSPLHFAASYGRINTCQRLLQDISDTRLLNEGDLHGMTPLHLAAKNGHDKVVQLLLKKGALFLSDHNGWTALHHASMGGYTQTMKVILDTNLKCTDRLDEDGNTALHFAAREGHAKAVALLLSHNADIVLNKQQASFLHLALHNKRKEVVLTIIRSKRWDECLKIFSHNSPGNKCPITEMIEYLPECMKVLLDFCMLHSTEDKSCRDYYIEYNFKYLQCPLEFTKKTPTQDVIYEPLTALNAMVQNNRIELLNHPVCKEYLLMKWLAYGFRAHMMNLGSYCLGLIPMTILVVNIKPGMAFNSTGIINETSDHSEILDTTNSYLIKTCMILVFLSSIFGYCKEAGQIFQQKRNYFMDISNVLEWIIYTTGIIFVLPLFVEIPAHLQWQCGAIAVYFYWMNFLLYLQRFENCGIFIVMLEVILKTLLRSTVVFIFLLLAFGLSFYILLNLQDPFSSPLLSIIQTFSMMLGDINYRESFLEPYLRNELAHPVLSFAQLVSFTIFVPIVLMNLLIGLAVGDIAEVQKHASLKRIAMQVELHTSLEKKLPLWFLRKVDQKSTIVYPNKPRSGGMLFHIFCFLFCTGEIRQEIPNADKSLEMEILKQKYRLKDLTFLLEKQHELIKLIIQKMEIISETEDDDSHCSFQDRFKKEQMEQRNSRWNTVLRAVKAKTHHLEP

TRPA1V1 = test: Intracellular calcium (Fluo-4, FLIPR) activation of TRPA1V1 cells (co-expressing TRPA1 and TRPV1) by GRAS compounds; type: cell-based, human; details: relative to AITC 30 μM;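 further: HEK293 cells co-expressing TRPA1 and TRPV1, fluorescence read at 488/514 nm after baseline subtraction, recorded every 2 s over 10 min, ionomycin 10 µM and buffer as controls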
[1] = Table 1(c), 1 mM, relative to AITC 30 μM
[2] = Table 1(d), 1 mM, relative to AITC 30 μM
[3] = Table 1(e), 1 mM, relative to AITC 30 μM
[4] = Table 1(c), relative to AITC 30 μM

SMILES: CCC(=O)OCc1ccccc1 [Benzyl propionate]
- activation at 1000 µM (human TRPA1; [1]): 103%
- A1V1 activation, % of agonist value (TRPA1V1; Table 1(c), 1 mM): 90.7%

SMILES: CC(C)=CCC[C@](C)(O)C1CC=C(C)CC1 (some centres unmarked) [Bisabolol]
- activation at 1000 µM (human TRPA1; [1]): 68%
- A1V1 activation, % of agonist value (TRPA1V1; Table 1(c), 1 mM): 73.53%

SMILES: O=CC=Cc1ccccc1 [Cinnamaldehyde]
- activation at 1000 µM (human TRPA1): 51.2%
- A1V1 activation, % of agonist value (TRPA1V1; Table 1(e), 1 mM): 77.3%

SMILES: O=C(O)C=Cc1ccccc1 [Cinnamic acid]
- activation at 1000 µM (human TRPA1; [1]): 37.7%
- A1V1 activation, % of agonist value (TRPA1V1; Table 1(c), 1 mM): 42.5%

SMILES: CC(=O)OCC=Cc1ccccc1 [Cinnamyl acetate]
- activation at 1000 µM (human TRPA1; [1]): 85%
- A1V1 activation, % of agonist value (TRPA1V1; Table 1(c), 1 mM): 89.73%

SMILES: OCC=Cc1ccccc1 [Cinnamyl alcohol]
- activation at 1000 µM (human TRPA1): 89.8%
- A1V1 activation, % of agonist value (TRPA1V1; Table 1(c), 1 mM): 79.4%

SMILES: CCCCC/C=C\CCO [Cis-3-nonen-1-ol]
- activation at 1000 µM (human TRPA1; [2]): 55%
- A1V1 activation, % of agonist value (TRPA1V1; Table 1(d), 1 mM): 41.22%

SMILES: COC(C=C(C)CCC=C(C)C)OC [Citral dimethyl acetal]
- activation at 1000 µM (human TRPA1; [3]): 102%
- A1V1 activation, % of agonist value (TRPA1V1; Table 1(e), 1 mM): 137.2%

SMILES: CC(C)=CCCC(C)=CC=O [Citral]
- activation at 1000 µM (human TRPA1; [1]): 145%
- A1V1 activation, % of agonist value (TRPA1V1; Table 1(c), 1 mM): 132.7%

SMILES: CCCC(=O)OCCC(C)CCC=C(C)C (centres unmarked) [Citronellyl butyrate]
- activation at 100 µM (human TRPA1; [4]): 44.9%
- A1V1 activation, % of agonist value (TRPA1V1; Table 1(c), 100 μM (*)): 57.9%

SMILES: CCC(=O)OCCC(C)CCC=C(C)C (centres unmarked) [Citronellyl propionate]
- activation at 100 µM (human TRPA1; [4]): 52.5%
- A1V1 activation, % of agonist value (TRPA1V1; Table 1(c), 100 μM (*)): 43.2%

SMILES: CC(C=O)Cc1ccc(C(C)C)cc1 (centres unmarked) [Cyclamen aldehyde]
- A1 activation, % of agonist value (human TRPA1; [3]): 94.1%
- A1V1 activation, % of agonist value (TRPA1V1; Table 1(e), 1 mM): 120.9%

SMILES: CCCCCCCCCC(=O)O [Decanoic acid]
- activation at 1000 µM (human TRPA1; [1]): 65.1%
- A1V1 activation, % of agonist value (TRPA1V1; Table 1(c), 1 mM): 73.45%

SMILES: CC(=O)CCC1=C(C)CCCC1(C)C [Dihydro-beta-ionone]
- A1 activation, % of agonist value (human TRPA1; [1]): 64.4%
- A1V1 activation, % of agonist value (TRPA1V1; Table 1(c), 1 mM): 64.07%

SMILES: CCOC(=O)C(Cc1ccccc1)C(C)=O (centres unmarked) [Ethyl 2-benzylacetoacetate]
- activation at 1000 µM (human TRPA1): 98%
- A1V1 activation, % of agonist value (TRPA1V1; Table 1(c), 1 mM): 115%

SMILES: CCOC(=O)C(C)S (centres unmarked) [Ethyl 2-mercaptopropionate]
- activation at 100 µM (human TRPA1; [4]): 88.3%
- A1V1 activation, % of agonist value (TRPA1V1; Table 1(c), 100 μM (*)): 70.2%

SMILES: CCCCCC=CC(=O)OCC [Ethyl 2-octenoate]
- activation at 1000 µM (human TRPA1; [1]): 128%
- A1V1 activation, % of agonist value (TRPA1V1; Table 1(c), 1 mM): 120%

SMILES: CCCCCC(=O)CCCC(=O)OCC [Ethyl 5-oxodecanoate]
- activation at 1000 µM (human TRPA1; [2]): 51%
- A1V1 activation, % of agonist value (TRPA1V1; Table 1(d), 1 mM): 28.24%

SMILES: CCOC(=O)c1ccccc1 [Ethyl benzoate]
- activation at 1000 µM (human TRPA1; [1]): 70%
- A1V1 activation, % of agonist value (TRPA1V1; Table 1(c), 1 mM): 60%

SMILES: CCOC(=O)CCc1ccccc1 [Ethyl hydrocinnamate]
- activation at 1000 µM (human TRPA1; [2]): 72.2%
- A1V1 activation, % of agonist value (TRPA1V1; Table 1(d), 1 mM): 50.9%

SMILES: CCOC(=O)c1ccc(OC)cc1 [Ethyl p-anisate]
- activation at 1000 µM (human TRPA1; [1]): 91.2%
- A1V1 activation, % of agonist value (TRPA1V1; Table 1(c), 1 mM): 93.1%

SMILES: CCOC(=O)c1ccccc1O [Ethyl salicylate]
- activation at 1000 µM (human TRPA1; [2]): 41%
- A1V1 activation, % of agonist value (TRPA1V1; Table 1(d), 1 mM): 28%

SMILES: CCOc1cc(C2OCC(C)O2)ccc1O (centres unmarked) [Ethyl vanillin propylene glycol acetal]
- A1 activation, % of agonist value (human TRPA1; [1]): 66.41%
- A1V1 activation, % of agonist value (TRPA1V1; Table 1(c), 1 mM): 72.64%

SMILES: C=CC(=O)CC [Ethyl vinyl ketone]
- activation at 1000 µM (human TRPA1; [2]): 79.5%
- A1V1 activation, % of agonist value (TRPA1V1; Table 1(d), 1 mM): 40.61%

SMILES: C=CCc1ccc(O)c(OC)c1 [Eugenol]
- activation at 1000 µM (human TRPA1; [1]): 79%
- A1V1 activation, % of agonist value (TRPA1V1; Table 1(c), 1 mM): 91.29%
